pKd: −log10 of the molar value. Entries after “also recorded” stand apart in the source; their conditions may differ.
What was measured:
Lcn2 = Lcn2 (Homo sapiens, UniProt P80188); assay: Isothermal titration calorimetry of Sulfocalixarene binding to Lcn2; settings: ITC, 25° C., 20 mM Tris pH 7.4, 50 mM NaCl, single binding site
Method: Isothermal Titration Calorimetry (ITC)—Binding of free and bound Sulfocalixarene to Lcn2 was determined by ITC using a Microcal ITC200 microcalorimeter. Experiments were carried out at 25° C. in 20 mM Tris pH 7.4, 50 mM NaCl. The reference cell contained Milli Q water. The concentration of Lcn2 in the reaction cell was 50 μM. The concentration of Sulfocalixarene in the syringe was 500 μM. The titration consisted in 19 successive injections of 4 μL, with a stirring speed of 800 rpm, separated by intervals of 300 s. Data analysis was done with the Origin software assuming a single binding site.
FIG. 7 illustrates a biophysical characterization of the Sulfocalixarene binding to soluble Lcn2. (top). Overlay of ^1H-^15N HSQC spectra for Lcn2 without (red) and with Sulfocalixarene (blue). Changes of cross peak frequencies (positions) indicate residues which are affected upon binding. (bottom) Isothermal titration calorimetry traces of Sulfocalixarene binding to Lcn2. Sulfocalixarene binds to Lcn2 with a KD of about 700 nM.

[1] = tested on: RA/PMA differentiated SH-SY5Y cells; assay: Sulfocalixarene protection against Lcn2/NGAL cytotoxicity; format: cell-based; settings: human differentiated SH-SY5Y neuroblastoma cells
Method: (§1) FIG. 11: Sulfocalixarene protection against Lcn2/NGAL cytotoxicity. A. SH-SY5Y RA/PMA differentiated cells were treated for 24 and 48 hours with two lethal concentrations of Lcn2/NGAL (100 μg/ml and 200 μg/ml). Cells were challenged with increasing concentration of Sulfocalixarene and assessed for MTT and phase contrast microscopy analyses. B. SH-SY5Y RA/PMA differentiated cells were treated for 24 and 48 hours with two lethal concentrations of MPP+ (0.5 mM and 10 mM). Cells were challenged with increasing concentration of Sulfocalixarene and assessed for MTT and phase contrast microscopy analyses.
To further study the effect of the compound in neuronal cellular cultures, a cytotoxicity assay was developed using the human Neuroblastoma SH-SY5Y cell line as an in vitro model for dopaminergic neurons. First, it was shown that RA-PMA terminally differentiated SH-SY5Y cells are sensitive to Lcn2/NGAL cytotoxicity in a dose dependent manner. Moreover, in the presence of reactive oxygen species (ROS) triggered by H2O2 the Lcn2/NGAL cytotoxicity is stronger. Second, it could be shown that SH-SY5Y terminally differentiated cells express ˜5× more the Lcn2/NGAL cognate receptor (SLC22A17) on the plasma membrane.

[2] = tested on: transgenic animal models for Parkinson Disease (PD); assay: Immunostaining of cortex in transgenic animal models for Parkinson Disease and healthy controls; format: in vivo, mice
From the text: FIG. 3: Quantification of the neuronal-immunostaining experiments. Total area, average size and % area are different computational strategies to quantify the number of neurons (however, leading to the same results).
FIG. 4: Immunostaining of astrocytes in healthy (control) and transgenic animals (PD). […] The numbers given for the transgenic animal models are average numbers (and standard deviation) of astrocytes obtained for different animals and cortex regions.
FIG. 6: Quantification of α-synuclein aggregates.

α-synuclein = α-synuclein (Homo sapiens, UniProt P37840); assay: NMR probing of interaction between α-synuclein and Sulfocalixarene, with and without POPG liposomes; format: binding
Method: POPG was ordered from Avantis Polar Lipids as a stock of 5 mg/ml dissolved in chloroform. The stock solution was aliquotted in glass vials, most chloroform was evaporated under nitrogen flow and the sample was then dried under vacuum for a minimum of 45 min. POPG was dissolved in the desired buffer to 1 mg/ml, kept at RT for 1 hr and subjected to 3 freeze-thaw cycles for complete solvation. The suspension was sonicated in a bath sonicator for 5 min and cycled through an extruder (Avanti® mini-Extruder) equipped with a 0.4 μm membrane for 20 times.
To allow for high concentration measurements, the resulting solution was centrifuged at 200,000×g for 10 min, 75% of the supernatant were discarded and the pellet was resuspended in the remaining 25% yielding a solution of 4 mg/ml POPG. This solution was frozen in aliquots before being used in further measurements. […]
For all NMR-measurements the protein was dialyzed into 20 mM phosphate, pH=7.4, 100 mM NaCl. […] NMR-Spectra were recorded on Varian Direct Drive 600 MHz and Varian Inova 800 MHz spectrometers with 10% D2O as lock solvent. […] Resonance assignment at near physiological conditions was readily available from a previous publication (J. N. Rao, Y. E. Kim, L. S. Park, T. S. Ulmer, Effect of pseudorepeat rearrangement on alpha-synuclein misfolding, vesicle binding, and micelle binding. J Mol Biol 390, 516-529 (2009)) (BMRB ID 16300). […]

[3] = tested on: RA/PMA differentiated SH-SY5Y cells; assay: Sulfocalixarene protection against MPP+ and H2O2 cytotoxicity; format: cell-based, human; settings: Sulfocalixarene 500 μM and 100 μM
Method: as §1
FIG. 12: Sulfocalixarene protection against MPP+ and H2O2 cytotoxicity. Representative phase-contrast microscope images of RA/PMA differentiated SH-SY5Y cells, scale bar 100 μm.
Furthermore, it was shown that Sulfocalixarene protected against MPP+ (a substrate for the dopamine transporter that is taken up selectively into dopaminergic neurons where it inhibits Complex I of the mitochondrial electron transport chain) and H2O2 stress in human differentiated SH-SY5Y cells. Oxidative stress and mitochondrial damage have been implicated in the pathogenesis of several neurodegenerative diseases.

[4] = tested on: transgenic (tg) animals Line 61; assay: Pasta Gnawing Test; format: in vivo, mice
Method: FIG. 13: Pasta Gnawing. The Pasta Gnawing Test is a stress-free behavioral experiment for evaluation of motor deficits in rodents. During the test, the gnawing noises of the animals while eating a piece of dry pasta are recorded. Parameters such as biting speed and number of bites/chewing episode are evaluated.
Data are shown as mean±SEM. Statistics 1-Way-Anova. Statistically significant group differences are indicated with asterisks (for One Way Anova) and hashtag (for t-test); *p<0.05; **p<0.01; #p<0.05.

Chain of Lcn2 (P80188 21-198): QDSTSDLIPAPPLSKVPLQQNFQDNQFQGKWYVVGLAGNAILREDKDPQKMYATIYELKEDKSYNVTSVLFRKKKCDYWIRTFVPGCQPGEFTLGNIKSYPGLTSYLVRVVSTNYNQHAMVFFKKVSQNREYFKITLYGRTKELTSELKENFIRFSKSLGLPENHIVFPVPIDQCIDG

SMILES: O=S(=O)(O)c1cc2c(O)c(c1)Cc1cc(S(=O)(=O)O)cc(c1O)Cc1cc(S(=O)(=O)O)cc(c1O)Cc1cc(S(=O)(=O)O)cc(c1O)C2 [Sulfocalixarene, 4-sulfocalix[4]arene]
- pKd (Lcn2): ~6.15
- neuroprotection against Lcn2/NGAL cytotoxicity [1]: has neuroprotection properties against the cytotoxic protein Lcn2/NGAL
- number of astrocytes ([2]; healthy control animals): unaffected
- number of neurons in the cortex ([2]; transgenic animal models for PD): increase of the number of neurons in the cortex
- pathological α-synuclein aggregates ([2]; transgenic animals (PD)): reduction of pathological α-synuclein aggregates; also recorded: significant reduction of α-synuclein aggregates
- number of astrocytes ([2]; transgenic animals (PD), cortex): increase of the number of (presumably neurotrophic quiescent) astrocytes
- location of binding site on α-synuclein (NMR chemical shift changes) (α-synuclein; monomeric (soluble) α-Synuclein): N-terminal domain of α-synuclein; also recorded: N-terminal part of α-Synuclein; also recorded: N-terminal domain (1-40)
- release of α-syn from POPG liposomes (NMR signal intensity ratio) (α-synuclein; α-syn (120 µM) with POPG-liposomes (0.8 mg/ml)): partly releases α-syn from the liposomes
- cell viability reduction induced by H2O2 [3]: attenuates the reduction of cell viability
- cell viability reduction induced by MPP+ [3]: attenuates the reduction of cell viability
- bites per episode ([4]; day 28, tg Line 61, versus tg animals treated with vehicle): significant more bites per episode
- biting speed ([4]; tg Line 61, versus tg animals treated with vehicle): more biting speed

Reference: US11179358B2, “Compound for use in the prevention and treatment of neurodegenerative diseases” (Universität Wien, priority 2015, dated 2021)
